{
  "source": "patent US20070225351A1",
  "about": "“Methods and compositions for controlling body weight and appetite” (priority 2002, published 2007)",
  "key": {"serotonin transporter": {"molecular_target": "T1, serotonin transporter (Rattus norvegicus, UniProt P31652)", "T1 construct": "The receptor source was rat forebrain membrane; from tissue; host or cells: rat forebrain membranes", "T1 sequence (P31652 whole entry)": "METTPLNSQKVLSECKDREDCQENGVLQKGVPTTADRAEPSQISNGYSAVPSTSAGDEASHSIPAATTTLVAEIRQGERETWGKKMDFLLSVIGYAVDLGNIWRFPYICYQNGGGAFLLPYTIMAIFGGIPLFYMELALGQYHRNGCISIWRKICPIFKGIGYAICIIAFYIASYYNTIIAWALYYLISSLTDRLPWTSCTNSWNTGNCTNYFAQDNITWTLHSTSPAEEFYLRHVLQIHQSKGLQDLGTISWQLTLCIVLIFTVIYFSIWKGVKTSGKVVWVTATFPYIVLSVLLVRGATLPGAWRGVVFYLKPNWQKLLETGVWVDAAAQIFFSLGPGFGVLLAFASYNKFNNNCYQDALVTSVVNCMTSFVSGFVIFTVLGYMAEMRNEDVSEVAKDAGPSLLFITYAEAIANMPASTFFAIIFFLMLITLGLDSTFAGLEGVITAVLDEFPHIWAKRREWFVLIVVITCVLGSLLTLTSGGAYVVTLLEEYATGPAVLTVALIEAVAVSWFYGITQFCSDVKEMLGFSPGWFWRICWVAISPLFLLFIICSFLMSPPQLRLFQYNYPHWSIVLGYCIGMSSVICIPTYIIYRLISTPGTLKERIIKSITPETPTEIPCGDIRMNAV", "assay": "Serotonin transporter binding assay, [3H]citalopram", "settings": "from Table 2", "protocol": "The reference compound and positive control were (±)-desmethylimipramine. […] Reactions were carried out in 50 mM TRIS-HCl (pH 7.4) containing 120 mM NaCl and 5 mM KCl at 25° C. for 60 minutes. The reaction was terminated by rapid vacuum filtration onto glass fiber filters. Radioactivity trapped in the filters was determined using liquid scintillation spectrometry and compared to control values in order to ascertain any interactions of test compound with the serotonin transporter binding site."}, "[1]": {"assay": "13-week oral toxicity study in rats (body weight, food consumption, clinical pathology, organ weights)", "assay_type": "in vivo, rat", "settings": "for mean cumulative body weight gain, lower than control: end of 13-week study; for mean body weight, lower than control: end of study", "protocol": "One hundred and forty Crl:CD®(SD)IGS BR rats were divided into 7 groups of 20 rats (ten male and ten female). […] Individual body weights were recorded at least weekly, beginning approximately two weeks prior to test article administration (study week-2). Mean body weights and mean body weight changes were calculated for the corresponding intervals. Final body weights (fasted) were recorded prior to the scheduled necropsy.\nFor toxicology assessment, all animals were observed three times daily for mortality and moribundity. Clinical examinations were performed daily and detailed physical examinations were performed weekly. Following 13 weeks of dose administration, all surviving animals were euthanized."}},
  "data": [
    {"smiles": "Cl.Clc1ccc([C@@]23CNC[C@@H]2C3)cc1Cl", "note": "(single isomer, unassigned) [(+)-1-(3,4-dichlorophenyl)-3-azabicyclo[3.1.0]hexane hydrochloride]", "values": [
      {"measurement": "affinity for the serotonin uptake site compared with the (±) compound", "setting": "serotonin transporter", "result": "significantly greater affinity"},
      {"measurement": "NOAEL at 13 weeks", "setting": "[1]; both sexes, Crl:CD(SD)IGS BR, rat, in vivo, rats, oral administration for 13 weeks, read-out: no-observed-adverse-effect level (NOAEL)", "result": 10, "unit": "mg/kg/day"},
      {"measurement": "mean cumulative body weight gain, lower than control", "setting": "[1]; female rats, 25 mg/kg/day oral", "result": 13, "unit": "%"},
      {"measurement": "food consumption, lower than control", "setting": "[1]; female rats, 25 mg/kg/day, first week", "result": 16, "unit": "%"},
      {"measurement": "mean cumulative body weight gain, lower than control", "setting": "[1]; female rats, 60 mg/kg/day oral", "result": 13, "unit": "%"},
      {"measurement": "mean body weight, lower than control", "setting": "[1]; female rats, 60 mg/kg/day oral", "result": 9, "unit": "%"},
      {"measurement": "food consumption, lower than control", "setting": "[1]; female rats, 60 mg/kg/day, first week", "result": 32, "unit": "%"},
      {"measurement": "food consumption, lower than control", "setting": "[1]; female rats, 60 mg/kg/day, second week", "result": 11, "unit": "%"},
      {"measurement": "weekly food consumption, MEAN", "setting": "[1]; female rats, 10 MG/KG/DAY group, WEEK −2 TO −1 (before dosing)", "result": "18.", "unit": "C/ANIMAL/DAY"},
      {"measurement": "weekly food consumption, MEAN", "setting": "[1]; female rats, 10 MG/KG/DAY, WEEK 0 TO 1", "result": "17.", "unit": "C/ANIMAL/DAY"},
      {"measurement": "weekly food consumption, MEAN", "setting": "[1]; female rats, 10 MG/KG/DAY, WEEK 1 TO 2", "result": "19.", "unit": "C/ANIMAL/DAY"},
      {"measurement": "weekly food consumption, MEAN", "setting": "[1]; female rats, 10 MG/KG/DAY, WEEK 2 TO 3", "result": "20.", "unit": "C/ANIMAL/DAY"},
      {"measurement": "weekly food consumption, MEAN", "setting": "[1]; female rats, 10 MG/KG/DAY, WEEK 3 TO 4", "result": "20.", "unit": "C/ANIMAL/DAY"},
      {"measurement": "weekly food consumption, MEAN", "setting": "[1]; female rats, 10 MG/KG/DAY, WEEK 4 TO 5", "result": "19.", "unit": "C/ANIMAL/DAY"},
      {"measurement": "weekly food consumption, MEAN", "setting": "[1]; female rats, 10 MG/KG/DAY, WEEK 5 TO 6", "result": "18.", "unit": "C/ANIMAL/DAY"},
      {"measurement": "weekly food consumption, MEAN", "setting": "[1]; female rats, 10 MG/KG/DAY, WEEK 6 TO 7", "result": "18.", "unit": "C/ANIMAL/DAY"},
      {"measurement": "weekly food consumption, MEAN", "setting": "[1]; female rats, 10 MG/KG/DAY, WEEK 7 TO 8", "result": "18.", "unit": "C/ANIMAL/DAY"},
      {"measurement": "weekly food consumption, MEAN", "setting": "[1]; female rats, 10 MG/KG/DAY, WEEK 8 TO 9", "result": "18.", "unit": "C/ANIMAL/DAY"},
      {"measurement": "weekly food consumption, MEAN", "setting": "[1]; female rats, 10 MG/KG/DAY, WEEK 9 TO 10", "result": "18.", "unit": "C/ANIMAL/DAY"},
      {"measurement": "weekly food consumption, MEAN", "setting": "[1]; female rats, 10 MG/KG/DAY, WEEK 10 TO 11", "result": "18.", "unit": "C/ANIMAL/DAY"},
      {"measurement": "weekly food consumption, MEAN", "setting": "[1]; female rats, 10 MG/KG/DAY, WEEK 11 TO 12", "result": "18.", "unit": "C/ANIMAL/DAY"},
      {"measurement": "weekly food consumption, MEAN", "setting": "[1]; female rats, 10 MG/KG/DAY, WEEK 12 TO 13", "result": "17.", "unit": "C/ANIMAL/DAY"},
      {"measurement": "weekly food consumption, MEAN", "setting": "[1]; female rats, 25 MG/KG/DAY group, WEEK −2 TO −1 (before dosing)", "result": "17.", "unit": "C/ANIMAL/DAY"},
      {"measurement": "weekly food consumption, MEAN", "setting": "[1]; female rats, 25 MG/KG/DAY, WEEK 0 TO 1", "result": "16.** C/ANIMAL/DAY"},
      {"measurement": "weekly food consumption, MEAN", "setting": "[1]; female rats, 25 MG/KG/DAY, WEEK 1 TO 2", "result": "20.", "unit": "C/ANIMAL/DAY"},
      {"measurement": "weekly food consumption, MEAN", "setting": "[1]; female rats, 25 MG/KG/DAY, WEEK 2 TO 3", "result": "10.", "unit": "C/ANIMAL/DAY"},
      {"measurement": "weekly food consumption, MEAN", "setting": "[1]; female rats, 25 MG/KG/DAY, WEEK 3 TO 4", "result": "20.", "unit": "C/ANIMAL/DAY"},
      {"measurement": "weekly food consumption, MEAN", "setting": "[1]; female rats, 25 MG/KG/DAY, WEEK 4 TO 5", "result": "18.", "unit": "C/ANIMAL/DAY"},
      {"measurement": "weekly food consumption, MEAN", "setting": "[1]; female rats, 25 MG/KG/DAY, WEEK 5 TO 6", "result": "19.", "unit": "C/ANIMAL/DAY"},
      {"measurement": "weekly food consumption, MEAN", "setting": "[1]; female rats, 25 MG/KG/DAY, WEEK 6 TO 7", "result": "18.", "unit": "C/ANIMAL/DAY"},
      {"measurement": "weekly food consumption, MEAN", "setting": "[1]; female rats, 25 MG/KG/DAY, WEEK 7 TO 8", "result": "17.", "unit": "C/ANIMAL/DAY"},
      {"measurement": "weekly food consumption, MEAN", "setting": "[1]; female rats, 25 MG/KG/DAY, WEEK 8 TO 9", "result": "19.", "unit": "C/ANIMAL/DAY"},
      {"measurement": "weekly food consumption, MEAN", "setting": "[1]; female rats, 25 MG/KG/DAY, WEEK 9 TO 10", "result": "18.", "unit": "C/ANIMAL/DAY"},
      {"measurement": "weekly food consumption, MEAN", "setting": "[1]; female rats, 25 MG/KG/DAY, WEEK 10 TO 11", "result": "18.", "unit": "C/ANIMAL/DAY"},
      {"measurement": "weekly food consumption, MEAN", "setting": "[1]; female rats, 25 MG/KG/DAY, WEEK 11 TO 12", "result": "18.", "unit": "C/ANIMAL/DAY"},
      {"measurement": "weekly food consumption, MEAN", "setting": "[1]; female rats, 25 MG/KG/DAY, WEEK 12 TO 13", "result": "17.", "unit": "C/ANIMAL/DAY"},
      {"measurement": "weekly food consumption, MEAN", "setting": "[1]; female rats, 60 MG/KG/DAY group, WEEK −2 TO −1 (before dosing)", "result": "17.", "unit": "C/ANIMAL/DAY"},
      {"measurement": "weekly food consumption, MEAN", "setting": "[1]; female rats, 60 MG/KG/DAY, WEEK 0 TO 1", "result": "13.** C/ANIMAL/DAY"},
      {"measurement": "weekly food consumption, MEAN", "setting": "[1]; female rats, 60 MG/KG/DAY, WEEK 1 TO 2", "result": "17.* C/ANIMAL/DAY"},
      {"measurement": "weekly food consumption, MEAN", "setting": "[1]; female rats, 60 MG/KG/DAY, WEEK 2 TO 3", "result": "18.", "unit": "C/ANIMAL/DAY"},
      {"measurement": "weekly food consumption, MEAN", "setting": "[1]; female rats, 60 MG/KG/DAY, WEEK 3 TO 4", "result": "16.", "unit": "C/ANIMAL/DAY"},
      {"measurement": "weekly food consumption, MEAN", "setting": "[1]; female rats, 60 MG/KG/DAY, WEEK 4 TO 5", "result": "17.", "unit": "C/ANIMAL/DAY"},
      {"measurement": "weekly food consumption, MEAN", "setting": "[1]; female rats, 60 MG/KG/DAY, WEEK 5 TO 6", "result": "18.", "unit": "C/ANIMAL/DAY"},
      {"measurement": "weekly food consumption, MEAN", "setting": "[1]; female rats, 60 MG/KG/DAY, WEEK 6 TO 7", "result": "18.", "unit": "C/ANIMAL/DAY"},
      {"measurement": "weekly food consumption, MEAN", "setting": "[1]; female rats, 60 MG/KG/DAY, WEEK 7 TO 8", "result": "18.", "unit": "C/ANIMAL/DAY"},
      {"measurement": "weekly food consumption, MEAN", "setting": "[1]; female rats, 60 MG/KG/DAY, WEEK 8 TO 9", "result": "18.", "unit": "C/ANIMAL/DAY"},
      {"measurement": "weekly food consumption, MEAN", "setting": "[1]; female rats, 60 MG/KG/DAY, WEEK 9 TO 10", "result": "17.", "unit": "C/ANIMAL/DAY"},
      {"measurement": "weekly food consumption, MEAN", "setting": "[1]; female rats, 60 MG/KG/DAY, WEEK 10 TO 11", "result": "17.", "unit": "C/ANIMAL/DAY"},
      {"measurement": "weekly food consumption, MEAN", "setting": "[1]; female rats, 60 MG/KG/DAY, WEEK 11 TO 12", "result": "18.", "unit": "C/ANIMAL/DAY"},
      {"measurement": "weekly food consumption, MEAN", "setting": "[1]; female rats, 60 MG/KG/DAY, WEEK 12 TO 13", "result": "17.", "unit": "C/ANIMAL/DAY"},
      {"measurement": "mean cumulative body weight gain, lower than control", "setting": "[1]; male rats, 25 mg/kg/day oral", "result": 16, "unit": "%"},
      {"measurement": "mean body weight, lower than control", "setting": "[1]; male rats, 25 mg/kg/day oral", "result": 10, "unit": "%"},
      {"measurement": "food consumption, lower than control", "setting": "[1]; male rats, 25 mg/kg/day, first week", "result": 8, "unit": "%"},
      {"measurement": "mean cumulative body weight gain, lower than control", "setting": "[1]; male rats, 60 mg/kg/day oral", "result": 30, "unit": "%"},
      {"measurement": "mean body weight, lower than control", "setting": "[1]; male rats, 60 mg/kg/day oral", "result": 18, "unit": "%"},
      {"measurement": "food consumption, lower than control", "setting": "[1]; male rats, 60 mg/kg/day, first week", "result": 19, "unit": "%"},
      {"measurement": "food consumption, lower than control", "setting": "[1]; male rats, 60 mg/kg/day, second week", "result": 4, "unit": "%"},
      {"measurement": "alanine aminotransferase (ALT) level", "setting": "[1]; rat, in vivo, 60 mg/kg/day", "result": "higher"},
      {"measurement": "alkaline phosphatase (ALP), higher", "setting": "[1]; rat, in vivo, 60 mg/kg/day", "result": "35-55%"},
      {"measurement": "bilirubin, higher", "setting": "[1]; rat, in vivo, 60 mg/kg/day", "result": "35-55%"}
    ]}
  ]
}
